Source: patent publication US10100198B2, “Application of reduced dyes in imaging” (LI-COR, Inc., priority 2011, dated 2018)
Values joined by “and” are separate entries in the source; they are usually repeats but may differ in a detail not shown here. Equal entries are not always repeated.

How the values were obtained:
[1] = UV/vis absorption and emission; assay type: physicochemical; conditions: for Extinction Coefficient: in M-1·cm-1 (unit assumed)
Protocol: Compound 1 (80 mg), 3-(4-carboxybutyl)phenylboronic acid (40 mg), and cesium carbonate (20 mg) are stirred into 1:1 water:ethanol (10 ml) under nitrogen at room temperature. Tetrakis(triphenylphosphine)palladium(0) (10 mg) is added to the reaction mixture. The mixture was refluxed for 4 hours, and the solvent and volatile compounds are evaporated under vacuum. The crude product is purified by flash chromatography on reverse-phase C18-functionalized silica by eluting with a 1:4 acetonitrile:water mixture. The purified product 3 has UV/vis absorption max of λMeOH=680 nm, ε=229,000; λPBS=676 nm, ε=239,000.
Compound 7 (80 mg), 3-(2-carboxyethyl)phenylboronic acid (40 mg), and cesium carbonate (20 mg) were stirred into water (20 mL) under nitrogen at room temperature. Tetrakis(triphenylphosphine)palladium (0) (10 mg) were added to the reaction mixture. The mixture was refluxed for 4 h, and the solvent and volatile compounds then were evaporated under vacuum. The crude product was purified by flash chromatography on reverse-phase silica with an acetonitrile/water mixture as the eluent. The purified compound had λMeOH=680 nm, λPBS=672 nm, ε=160,000.

HRP = molecular target: T1, HRP (Armoracia rusticana, UniProt P00433); assay: 800 HRP substrate test of DIR780F2-P, with and without enzyme, varied pH and Triton X-100; assay type: biochemical, horseradish; conditions: two hours at ambient temperature
T1 sequence (P00433 31-338): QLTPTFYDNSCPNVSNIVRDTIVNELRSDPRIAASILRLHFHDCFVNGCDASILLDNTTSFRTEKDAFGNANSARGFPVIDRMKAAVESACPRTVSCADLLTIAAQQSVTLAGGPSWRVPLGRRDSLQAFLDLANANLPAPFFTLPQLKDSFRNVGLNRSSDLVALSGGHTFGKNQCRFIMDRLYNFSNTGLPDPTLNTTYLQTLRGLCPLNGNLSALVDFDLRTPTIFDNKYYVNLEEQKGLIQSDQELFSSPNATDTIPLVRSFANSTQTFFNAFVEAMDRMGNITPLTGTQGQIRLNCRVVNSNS
From the text: Their efficacies as 800 HRP substrates have been tested in the ELISA format.

[2] = test system: ROS generation in RAW264.7 macrophages; assay: Imaging LPS-induced ROS generation in RAW264.7 macrophages by fluorescence microscope; assay type: cell-based, mouse; conditions: RAW264.7 cells, 5 μM hydrocyanines, 30 min
[3] = Cell permeability of reduced dyes; assay type: in vitro ADME
[4] = Water solubility of reduced dyes; assay type: physicochemical
β actin in A431 lysate = assay: Western blot detection with chemifluorescent substrates, A431 lysate probed with mouse anti-β actin and HRP goat anti-mouse antibodies; design: species or system Human
From the text: Use of H-IR780F2 and H-IRDye® 800CW for blot imaging was compared to a commercially-available 680 HRP ELISA substrate (see FIG. 15). 4-12% Bis-Tris gels were loaded with 2-fold, 7-point serial dilutions of A431 lysate (high conc.=[…]), electrophoresed, transferred to Odyssey Nitrocellulose, blocked with SeaBlock Blocking Buffer (with ProClin preservative). The blots were probed with mouse anti-β actin antibodies, followed by HRP goat anti-mouse antibodies (FIG. 15, A-D) or dye-conjugated goat anti-mouse antibodies (FIG. 15, E-F). Blots probed with HRP goat anti-mouse antibodies were incubated for 5 min with chemifluorescent substrates in buffer containing hydrogen peroxide. H-IRDye® 800CW and H-IR780F2 were tested at 10 μM with 50-200 μM H2O2. HRP 680 ELISA substrate was used according to published protocols (i.e., LI-COR product no. 926-34300).
The basic workflow remains unchanged and therefore, the chemifluorescent substrate based analysis is amenable to other methods of protein analysis, such as ELISAs and protein arrays.

[5] = molecular target: T2, goat anti-mouse HRP-labeled antibody (GAM-HRP) (Armoracia rusticana, UniProt P00433); assay: H-IR 780 / D-IR 780 as HRP substrate with HRP-labeled antibody in 96-well plate; assay type: biochemical, horseradish; conditions: 10 μM substrate, HRP 800 Assay Buffer pH 3.0, 10 minutes ambient temperature, Odyssey 800 nm channel
T2 sequence (P00433 31-338 limits assumed): T1 sequence (P00433 31-338)
From the text: Reduced hydrocyanine dyes (H- or D-versions) are nonfluorescent, but turn fluorescent upon oxidation. This activation property was exploited to utilize the reduced hydrocyanine dyes as horseradish peroxidase (HRP) substrates. In certain embodiments of an enzymatic assay, the hydrocyanines can be oxidized by HRP using hydrogen peroxide as the oxidizing agent, yielding a fluorescent signal. In some preferred embodiments, this fluorescent signal's wavelength can range from 530-900 nm depending on the structure of the dye.
HRP 800 Assay Buffer: The HRP 800 Assay Buffer contains 60 μM Hydrogen Peroxide, 0.2 μg/mL Acetanilide, 0.02% Triton X−100, in 100 mM Citrate Buffer, pH 3.0.
H-IR 780 Substrate solution: 10 μM H-IR 780 in the HRP 800 Assay Buffer.
D-IR 780 Substrate solution: 10 μM D-IR 780 in the HRP 800 Assay Buffer.
The utility of the H-IR 780 and D-IR 780 as a HRP substrate was tested by reaction of the dye with an enzyme-labeled antibody. The substrate, when oxidized by HRP and hydrogen peroxide, yields a fluorescent signal at approximately 800 nm in the NIR. […] Wells B12, C12 and D12 received 10 μL of PBS buffer (pH 7.2) and were used as a control to measure the background fluorescence. […]

CC1(C)C(/C=C/C(=C/C=C2/N(CCCS(=O)(=O)[O-])c3ccc4c(S(=O)(=O)[O-])cc(S(=O)(=O)[O-])cc4c3C2(C)C)c2cccc(CCCCC(=O)O)c2)=[N+](CCCS(=O)(=O)[O-])c2ccc3c(S(=O)(=O)[O-])cc(S(=O)(=O)[O-])cc3c21.[Na+].[Na+].[Na+].[Na+].[Na+] [Compound 3, Sodium 2-((1E,3Z,5E)-3-(3-(4-Carboxybutyl)phenyl)-5-(1,1-dimethyl-6,8-disulfonato-3-(3-sulfonatopropyl)-1H-benzo[e]indol-2(3H)-ylidene)penta-1,3-dienyl)-1,1-dimethyl-3-(3-sulfonatopropyl)-1H-benzo[e]indolium-6,8-disulfonate]
Max. Abs. ([1]; MeOH): 680 nm
Extinction Coefficient ([1]; MeOH): 229,000
Max. Abs. ([1]; PBS): 676 nm
Extinction Coefficient ([1]; PBS): 239,000

CC1(C)C(/C=C/C(=C/C=C2/N(CCCS(=O)(=O)[O-])c3ccc(S(=O)(=O)[O-])cc3C2(C)C)c2cccc(CCC(=O)O)c2)=Nc2c1cc(Cl)c[n+]2CCCS(=O)(=O)[O-].[Na+].[Na+] [Compound 8, Sodium (E)-2-((2Z,4E)-3-(3-(2-Carboxyethyl)phenyl)-5-(5-chloro-3,3-dimethyl-7-(3-sulfonatopropyl)-3H-pyrrolo[2,3-b]pyridin-7-ium-2-yl)penta-2,4-dienylidene)-3,3-dimethyl-1-(3-sulfonatopropyl)indoline-5-sulfonate]
Max. Abs. ([1]; MeOH): 680 nm
Max. Emis. ([1]; MeOH): 694 nm
Extinction Coefficient ([1]; MeOH): 170,000
Max. Abs. ([1]; PBS): 672 nm
Max. Emis. ([1]; PBS): 694 nm
Extinction Coefficient ([1]; PBS): 160,000

[2H]C1(C=CC2=C(c3cccc(F)c3F)C(=CC=C3N(CCC)c4ccccc4C3(C)C)CCC2)N(CCC)c2ccccc2C1(C)C (stereo not drawn) [DIR780F2-P]
+Enzyme signal (HRP; pH 5, Triton X-100 0.01%): 111403 and 107251 and 95434 and 93017
Mean Background (HRP; pH 5, Triton X-100 0.01%): 17016
Mean Signal (HRP; pH 5, Triton X-100 0.01%): 101776
Signal-Background (HRP; pH 5, Triton X-100 0.01%): 84761
−Enzyme signal (HRP; pH 5, Triton X-100 0.01%): 14729 and 17889 and 16731 and 18713
+Enzyme signal (HRP; pH 5, Triton X-100 0.05%): 110308 and 116984 and 91720 and 95384
Mean Background (HRP; pH 5, Triton X-100 0.05%): 16011
Mean Signal (HRP; pH 5, Triton X-100 0.05%): 103599
Signal-Background (HRP; pH 5, Triton X-100 0.05%): 87588
−Enzyme signal (HRP; pH 5, Triton X-100 0.05%): 15096 and 16995 and 15697 and 16257
+Enzyme signal (HRP; pH 5, Triton X-100 0.1%): 86168 and 78778 and 79940 and 81063
Mean Background (HRP; pH 5, Triton X-100 0.1%): 14716
Mean Signal (HRP; pH 5, Triton X-100 0.1%): 81487
Signal-Background (HRP; pH 5, Triton X-100 0.1%): 66771
−Enzyme signal (HRP; pH 5, Triton X-100 0.1%): 14612 and 15268 and 14653 and 14330
+Enzyme signal (HRP; pH 6, Triton X-100 0.01%): 65943 and 71002 and 70952 and 72922
Mean Background (HRP; pH 6, Triton X-100 0.01%): 13218
Mean Signal (HRP; pH 6, Triton X-100 0.01%): 70205
Signal-Background (HRP; pH 6, Triton X-100 0.01%): 56987
−Enzyme signal (HRP; pH 6, Triton X-100 0.01%): 12646 and 15381 and 12242 and 12600
+Enzyme signal (HRP; pH 6, Triton X-100 0.05%): 72420 and 71667 and 65401 and 73540
Mean Background (HRP; pH 6, Triton X-100 0.05%): 15498
Mean Signal (HRP; pH 6, Triton X-100 0.05%): 70757
Signal-Background (HRP; pH 6, Triton X-100 0.05%): 55259
−Enzyme signal (HRP; pH 6, Triton X-100 0.05%): 16006 and 17026 and 14644 and 14316
+Enzyme signal (HRP; pH 6, Triton X-100 0.1%): 73669 and 63411 and 72029 and 67718
Mean Background (HRP; pH 6, Triton X-100 0.1%): 17956
Mean Signal (HRP; pH 6, Triton X-100 0.1%): 69207
Signal-Background (HRP; pH 6, Triton X-100 0.1%): 51251
−Enzyme signal (HRP; pH 6, Triton X-100 0.1%): 21194 and 15983 and 19749 and 14897

CCCN1/C(=C/C=C/C2N(CCC)c3ccccc3C2(C)C)C(C)(C)c2ccccc21 (stereo not drawn) [H-Cy3]
fluorescent intensity in LPS treated cells compared to untreated cells [2]: increased fluorescent intensity in the LPS treated cells compared to the untreated cells

CC1(C)\C(=C/C=C(Br)/C=C/C2N(CCCCCCO)c3ccccc3C2(C)C)N(CCCCCCO)c2ccccc21 (stereo not drawn) [H-IR650DIOL, 6-((E)-2-((2Z,4E)-3-bromo-5-(1-(6-hydroxyhexyl)-3,3-dimethylindolin-2-yl)penta-2,4-dien-1-ylidene)-3,3-dimethylindolin-1-yl)hexan-1-ol]
cell permeability [3]: cell permeable
water solubility [4]: improved water solubility

CC1(C)\C(=C/C=C(Br)/C=C/C2N(CCCCCCO)c3ccc4ccccc4c3C2(C)C)N(CCCCCCO)c2ccc3ccccc3c21 (stereo not drawn) [H-IR680DIOL]
cell permeability [3]: cell permeable
water solubility [4]: improved water solubility

CCCN1/C(=C/C=C2\CCCC(/C=C/C3N(CCC)c4ccccc4C3(C)C)=C2c2cccc(F)c2F)C(C)(C)c2ccccc21 (stereo not drawn) [H-IR780F2]
fluorescent intensity in LPS treated cells compared to untreated cells [2]: increased fluorescent intensity in the LPS treated cells compared to the untreated cells
Western blot signal, background and linearity (β actin in A431 lysate; 10 μM substrate, 50-200 μM H2O2, 5 min incubation): good signal with high linearity for lower signals and moderate linearity for higher signals
Lower Limit of Detection (LLD) (β actin in A431 lysate; Western blots): 1.5 ng
sensitivity compared to chemiluminescent detection (luminol-based reagent system) (β actin in A431 lysate; Western blots): 32 fold
sensitivity compared to fluorescent dye-conjugated secondary antibody detection (β actin in A431 lysate; Western blots): 16 fold

CCCN1/C(=C/C=C2\CCCC(/C=C/C3N(CCC)c4ccccc4C3(C)C)=C2Cl)C(C)(C)c2ccccc21 (stereo not drawn) [H-IR 780]
fluorescence signal at approximately 800 nm versus GAM-HRP concentration [5]: intensity of the fluorescence signal increased with increasing concentration of GAM-HRP
